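Results reflect a 48-hour exposure of cells in 96-well plates to compound at five concentrations. The concentration for 50% growth inhibition is given as GI50.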 Activity calls are given as the source filed them. Cut-off read from the data, not from the text of the source: active = GI50 up to about 1.1 µM and inactive = higher.
Legend:
Test in all cases: NCI-60 cell line screen, 48 h
A549 = tested on: A549
KM12 = tested on: KM12
HCT-116 = tested on: HCT-116
NCI-H460 = tested on: NCI-H460
TK-10 = tested on: TK-10
OVCAR-8 = tested on: OVCAR-8
SF-268 = tested on: SF-268
SK-MEL-2 = tested on: SK-MEL-2
HCT-15 = tested on: HCT-15
SW-620 = tested on: SW-620
IGROV-1 = tested on: IGROV-1
OVCAR-4 = tested on: OVCAR-4
HOP-62 = tested on: HOP-62
UACC-62 = tested on: UACC-62
SK-MEL-5 = tested on: SK-MEL-5
SNB-19 = tested on: SNB-19
K562 = tested on: K562
CCRF-CEM = tested on: CCRF-CEM

SMILES | GI50 (A549) | GI50 (KM12) | GI50 (HCT-116) | GI50 (NCI-H460) | GI50 (TK-10) | GI50 (OVCAR-8) | GI50 (SF-268) | GI50 (SK-MEL-2) | GI50 (HCT-15) [µM] | GI50 (SW-620) | GI50 (IGROV-1) | GI50 (OVCAR-4) | GI50 (HOP-62) | GI50 (UACC-62) | GI50 (SK-MEL-5) | GI50 (SNB-19) | GI50 (K562) | GI50 (CCRF-CEM)
C/C=C/C(C#N)O[Si](C)(C)C (centres undefined) | > 100 µM (inactive) | > 100 µM (inactive) | > 100 µM (inactive) | > 100 µM (inactive) | > 100 µM (inactive) | > 100 µM (inactive) | > 100 µM (inactive) | > 100 µM (inactive) | > 100 | > 100 µM (inactive) | > 100 µM (inactive) | > 100 µM (inactive) | > 100 µM (inactive) | > 100 µM (inactive) | > 100 µM (inactive) | > 100 µM (inactive) |  | 
CCOC(=O)C1C(=O)CN2CCc3c([nH]c4ccccc34)C12C(=O)OCC (centres undefined) | > 100 µM (inactive) | > 100 µM (inactive) | > 100 µM (inactive) | > 100 µM (inactive) | > 100 µM (inactive) | > 100 µM (inactive) | > 100 µM (inactive) | > 100 µM (inactive) | > 100 | > 100 µM (inactive) | > 100 µM (inactive) | > 100 µM (inactive) | > 100 µM (inactive) | > 100 µM (inactive) | > 100 µM (inactive) | > 100 µM (inactive) | > 100 µM (inactive) | > 100 µM (inactive)
O=S(=O)(N/N=C/c1c(Cl)cccc1Cl)c1ccccc1 | > 100 µM (inactive) | > 100 µM (inactive) | > 100 µM (inactive) | > 100 µM (inactive) | > 100 µM (inactive) | > 100 µM (inactive) | > 100 µM (inactive) | > 100 µM (inactive) | > 100 | > 100 µM (inactive) | > 100 µM (inactive) | > 100 µM (inactive) | > 100 µM (inactive) | 97.7 µM (inactive) | > 100 µM (inactive) |  | > 100 µM (inactive) | 66.1 µM (inactive)
CC#C[C@@]1(O)CCCC[C@@H]1O | > 100 µM (inactive) | > 100 µM (inactive) | > 100 µM (inactive) | > 100 µM (inactive) | > 100 µM (inactive) | > 100 µM (inactive) | > 100 µM (inactive) | > 100 µM (inactive) | > 100 | > 100 µM (inactive) | > 100 µM (inactive) | > 100 µM (inactive) | > 100 µM (inactive) | > 100 µM (inactive) | > 100 µM (inactive) | > 100 µM (inactive) | > 100 µM (inactive) | > 100 µM (inactive)
COC(=O)C(=O)C(C(=O)OC)C(=O)C(=O)Nc1cc(Cl)c(Cl)cc1Cl (centres undefined) | > 100 µM (inactive) | > 100 µM (inactive) | 22.4 µM (inactive) | > 100 µM (inactive) | > 100 µM (inactive) | > 100 µM (inactive) | > 100 µM (inactive) | > 100 µM (inactive) | 47.1 |  | > 100 µM (inactive) | > 100 µM (inactive) | > 100 µM (inactive) | > 100 µM (inactive) | > 100 µM (inactive) | > 100 µM (inactive) | > 100 µM (inactive) | 31.6 µM (inactive)
C[C@@H]1O[C@]2(O)[C@@H]3CCCN3S(=O)(=O)CCN2C1=O | > 100 µM (inactive) | > 100 µM (inactive) | > 100 µM (inactive) | > 100 µM (inactive) | > 100 µM (inactive) | > 100 µM (inactive) | > 100 µM (inactive) |  | > 100 | > 100 µM (inactive) | > 100 µM (inactive) | > 100 µM (inactive) | > 100 µM (inactive) | > 100 µM (inactive) | > 100 µM (inactive) | > 100 µM (inactive) | > 100 µM (inactive) | > 100 µM (inactive)
C/C(=C/c1c(C)[nH]c(=O)[nH]c1=O)C(=O)O | > 1370 µM (inactive) | > 1370 µM (inactive) | > 1370 µM (inactive) | > 1370 µM (inactive) |  |  | > 1370 µM (inactive) |  | > 1370 | > 1370 µM (inactive) | > 1370 µM (inactive) | > 1370 µM (inactive) | > 1370 µM (inactive) | > 1370 µM (inactive) | > 1370 µM (inactive) | > 1370 µM (inactive) | > 1370 µM (inactive) | > 1370 µM (inactive)
COc1ccc(CCC2NCCc3cc(OC)c(OC)cc32)cc1 (centres undefined) | > 100 µM (inactive) | > 100 µM (inactive) | > 100 µM (inactive) | > 100 µM (inactive) | > 100 µM (inactive) | > 100 µM (inactive) | > 100 µM (inactive) | > 100 µM (inactive) | > 100 | > 100 µM (inactive) |  | 25.3 µM (inactive) | > 100 µM (inactive) |  | > 100 µM (inactive) | > 100 µM (inactive) | > 100 µM (inactive) | > 100 µM (inactive)
CCOC(=O)c1c(-c2ccccc2)c(C(OC(c2ccccc2)c2c(-c3ccccc3)c(C(=O)OCC)n3ccccc23)c2ccccc2)c2ccccn12 (centres undefined) | > 100 µM (inactive) | > 100 µM (inactive) | > 100 µM (inactive) | > 100 µM (inactive) | > 100 µM (inactive) | > 100 µM (inactive) | > 100 µM (inactive) | > 100 µM (inactive) | > 100 | > 100 µM (inactive) | > 100 µM (inactive) | > 100 µM (inactive) | > 100 µM (inactive) | > 100 µM (inactive) |  | > 100 µM (inactive) | > 100 µM (inactive) | > 100 µM (inactive)
CCCSc1nc(COC(=O)NC)c(COC(=O)NC)n1C | > 100 µM (inactive) | > 100 µM (inactive) | > 100 µM (inactive) | 54.7 µM (inactive) |  | > 100 µM (inactive) |  | > 100 µM (inactive) | > 83 | > 95.7 µM (inactive) | > 100 µM (inactive) | > 100 µM (inactive) | > 100 µM (inactive) | > 100 µM (inactive) | > 100 µM (inactive) | > 100 µM (inactive) | 31.4 µM (inactive) | 20.7 µM (inactive)
CC1(C)C2CCC3(OCCO3)C1C1OC12 (centres undefined) | > 100 µM (inactive) | > 100 µM (inactive) | > 100 µM (inactive) | > 100 µM (inactive) | > 100 µM (inactive) | > 100 µM (inactive) | > 100 µM (inactive) | > 100 µM (inactive) | > 100 | > 100 µM (inactive) |  | > 100 µM (inactive) |  |  | > 100 µM (inactive) | 30 µM (inactive) | > 100 µM (inactive) | > 100 µM (inactive)
N#CCC(=O)N/N=C1\C(=O)N(c2ccc(Cl)cc2)C(=O)C(=O)C1c1nc2ccccc2o1 (centres undefined) | > 100 µM (inactive) | > 100 µM (inactive) | > 100 µM (inactive) | > 100 µM (inactive) | > 100 µM (inactive) | > 100 µM (inactive) | > 100 µM (inactive) | > 100 µM (inactive) | > 100 | > 100 µM (inactive) | > 100 µM (inactive) | > 100 µM (inactive) | > 100 µM (inactive) | > 100 µM (inactive) | > 100 µM (inactive) | > 100 µM (inactive) |  | > 100 µM (inactive)

— ChEMBL document CHEMBL1201862, “PubChem BioAssay data set” (2004)
